Data set [1] has as its target T1, NADPH oxidase (Mus musculus, UniProt Q61093).
T1 sequence (Q61093 1-570): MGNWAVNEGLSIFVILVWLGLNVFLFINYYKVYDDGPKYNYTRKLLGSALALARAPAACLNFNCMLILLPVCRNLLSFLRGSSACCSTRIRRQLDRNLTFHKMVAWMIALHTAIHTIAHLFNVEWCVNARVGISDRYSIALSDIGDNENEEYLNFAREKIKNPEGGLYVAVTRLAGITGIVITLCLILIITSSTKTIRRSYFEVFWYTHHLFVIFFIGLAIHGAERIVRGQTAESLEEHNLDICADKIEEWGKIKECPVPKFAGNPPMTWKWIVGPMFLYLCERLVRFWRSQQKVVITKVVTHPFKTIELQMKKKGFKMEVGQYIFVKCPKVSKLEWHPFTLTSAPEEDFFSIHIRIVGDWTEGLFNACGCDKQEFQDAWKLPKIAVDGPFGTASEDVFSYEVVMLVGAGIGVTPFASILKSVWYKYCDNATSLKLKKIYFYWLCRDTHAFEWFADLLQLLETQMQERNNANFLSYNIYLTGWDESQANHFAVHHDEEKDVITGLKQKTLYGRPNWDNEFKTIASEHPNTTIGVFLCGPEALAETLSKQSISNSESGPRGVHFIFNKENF
T1 sequence (Q61462 1-192 partner): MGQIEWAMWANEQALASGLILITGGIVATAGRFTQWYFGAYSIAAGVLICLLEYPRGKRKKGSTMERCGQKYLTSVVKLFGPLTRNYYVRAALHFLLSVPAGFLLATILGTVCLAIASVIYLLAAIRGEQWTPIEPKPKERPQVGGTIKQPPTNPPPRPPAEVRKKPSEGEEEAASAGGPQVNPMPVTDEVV
Description: EPR superoxide production by forebrain synaptosomes exposed to IL-6. Conditions: IL-6 100 ng/ml, synaptosomes. The format is biochemical.

In data set [2] the test system is Jak2. The data set is described as follows: Jak2 phosphorylation in cortical neurons exposed to IL-6. The conditions noted are these: IL-6 20 ng/ml, 1 h, absence of astrocytes. Format: cell-based, mouse. On the procedure: Exposure of cortical neurons to IL-6 (20 ng/ml, 1 h in the absence of astrocytes) increased the phosphorylation of the protein kinase Jak2, which transduces the signal from the activated IL-6 receptor, as illustrated by the data shown in FIG. 34A. […] Prolonged exposure (24 h) to the interleukin increased production of superoxide (as determined by DHE oxidation) and increased the expression of Nox2 in neurons, as illustrated by the data shown in FIG. 34B. The role of Nox2 activation in the increase in DHE oxidation was confirmed by co-exposure to the Nox inhibitor apocynin (0.5 mM) (FIG. 34B bottom panels).
For FIGS. 34A-34B: primary neuronal cultures were developed on coverslips as described Kinney et al., 2006, supra. After 21 days in culture, coverslips containing neurons were separated from the astrocytic monolayers, washed in HCSS and subjected to IL-6 treatment for 1 hour (FIG. 34A) or treated with IL-6 for 24 h on top of the astrocyte monolayer (FIG. 34B). After treatment, the coverslips were fixed in paraformaldehyde and processed for double fluorescence immuno-cytochemistry using the following antibodies: anti-GAD67 (1:2000, Chemicon. Red) anti-phospho-Jak2 (1:100, Cell Signaling. Green), and anti-Nox2 (1:300, monoclonal 54.1 Green). […] Secondary antibodies were conjugated to ALEXAFLUOR 488™ (green fluorescence) and ALEXAFLUOR 568™ (red fluorescence).

Data set [3] relates to Nox2. Description: IL-6 i.p. on two consecutive days in mice: brain and synaptosomal Nox. The conditions noted are these: IL-6 5 μg/kg i.p. on two consecutive days.
The conditions of data set [4]: in vivo; cited from earlier work.
Data set [5] can be described thus: IL-6 i.p. in young and old mice: plasma IL-6 (ELISA) and tolerability. The format is in vivo. How it is done:
Plasma IL-6 is increased with aging or after intraperitoneal (i.p.) administration of IL-6, as illustrated by data shown in FIG. 44. […] IL-6 was assayed by ELISA (R&D Systems, Minneapolis, Minn.). Mice were then given a direct intraperitoneal (IP) injection of 3 μg/kg IL-6 on two consecutive days, and plasma IL-6 was assayed 16 hours (hr) after the last injection. […] Since the half-life of IL-6 in plasma is 4 hr, the sustained increase in IL-6 after injection may indicate induction of new IL-6 synthesis in young mice, which may be suppressed by the high endogenous IL-6 levels in old mice.

The test system of data set [6] is primary neuronal cultures. Description: IL-6 exposure of primary neuronal cultures: oxidized DHE, Nox2, parvalbumin and GAD67. Format: cell-based, mouse. On the procedure: IL-6 increases superoxide in a Nox dependent manner, and reduces GAD67 and parvalbumin in primary cultures, as summarized by the data graphically presented in FIG. 18. […] As before, dihydroethidium (DHE) was applied for the last hour (DHE detects superoxide and hydrogen peroxide). After fixation, ICC for PV and GAD67 was carried out as described in methods and quantitative confocal microscopy was utilized for fluorescence analysis.
DHE (1 μg/ml) was added during the last hour of treatment. Images show the increase in Nox2 immunoreactivity and oxidized DHE upon treatment with IL-6. Bar-graphs show the results of quantification of oxidized DHE and Nox2 fluorescence expressed as % of control. […] Data are means±SEM. Baseline intensities: DHE=21±4.7; Nox2=18.7±2.6.
Fluorescence confocal images of representative fields depicting the expression of parvalbumin (PV) and GAD67 in PV-interneurons. Bar-graph represents the quantification of fluorescence expressed as % of control. […] Data are means±SEM. Baseline intensities: PV=135±32; GAD67=114±26.
IL-6 potentiates ketamine effects on PV-interneurons. […] After fixation, ICC for GAD67 and parvalbumin was carried out as described by Kinney (2006) J. Neurosci. […] N=3 cultures per condition.

For data set [7], the system named is primary neuronal cultures. Description: DHE oxidation (superoxide and/or hydrogen peroxide production) in primary neuronal cultures exposed to ketamine. Format: cell-based, mouse.
Data set [8] concerns PV-interneurons. Description: PV-interneuron counts in old mice after long-term SOD-mimetic treatment. Format: in vivo, mouse. The conditions noted are these: treatment of animals from middle age (OM+C3). How it is done: Aging was accompanied by a statistically significant decrease in PV-interneuron number in all regions analyzed, as shown in FIG. 41B. […] Statistical significance was determined by ANOVA followed by Tukey's test.

Data set [9] has as its system PV-interneurons. The data set is described as follows: parvalbumin and GAD67 immunoreactivity in PV-interneurons in primary neuronal cultures. The conditions noted are these: co-exposure with ketamine 24 h; muscimol 10 μM, C3, apocynin 0.5 mM.
Data set [10] has as its system pyramidal layer of CA1 in the aged hippocampus. The data set is described as follows: in vivo superoxide production in CA1 of the aged hippocampus (DHE confocal imaging). Details: species or system mouse. The conditions noted are these: old mice; C3 by oral administration; apocynin. On the procedure: Analysis of superoxide and/or hydrogen peroxide production by confocal imaging of in vivo dihydroethidium (DHE) oxidation. Mice will be injected intraperitoneally (i.p.) with dihydroethidium. Briefly, two serial i.p. injections of freshly prepared dihydroethidium (27 mg/kg) are given at 30 minute intervals. Eighteen hours later, mice are anesthetized with inhaled halothane, and are perfused intracardially with cold saline followed by 4% paraformaldehyde in PBS. Brains are removed and post-fixed in 2% paraformaldehyde for >24 h. Following fixation, brains are cut into 50 μm coronal sections and co-labeled with the appropriate primary and secondary antibodies for fluorescence visualization. […] First, an image is taken in the fluorescence channel of the ICC-fluorophor and then the channel is switched to image fluorescence from DHE oxidation. […] Using the image pairs for each field and MetaMorph software, an analyst blind to the group circles the outline of each ICC-labeled cell and then switches to the DHE oxidation image. The average fluorescence intensity for each cell of interest is logged, and values averaged to determine the mean fluorescence/cell.

In data set [11] the test system is PV-interneurons in mouse prefrontal cortex. The data set is described as follows: two-day ketamine treatment of mice: oxidized DHE, parvalbumin and GAD67 in prefrontal cortex. Format: in vivo. Conditions: apocynin 5 mg/kg/day 1 week in drinking water; C3 1.0 mg/kg/day one month by mini-pumps. How it is done: Animals and treatments. […] Male C57BL6 mice were obtained from Jackson Labs, Bar Harbor, Me., at 8-12 weeks and housed in our facility until 15 weeks when they were used for experiments. Ketamine (30 mg/kg) was applied intraperitoneally (IP) on two consecutive days at around 4 pm. DHE was applied 30 min after the last ketamine injection as described (19, 20). Briefly, two serial i.p. injections of freshly prepared dihydroethidium (27 mg/kg) are given at 30 minute intervals. Eighteen hours later, mice are anesthetized with inhaled halothane, and perfused intracardially with cold saline followed by 4% paraformaldehyde in PBS. The Nox inhibitor, apocynin (5 mg/kg/day) was given in the drinking water for a total of seven days, with an assumed intake of […] H2O/mouse/day, and ketamine was applied on the last two days. […] All animal studies were approved by the Animal Care Program at the University of California, San Diego, and are in accordance the PHS Guide for the Care and Use of Laboratory Animals, USDA Regulations, and the AVMA Panel on Euthanasia.
Immunohistochemistry: Brains were frontally sliced in a vibratome into 50 μm coronal sections encompassing the prefrontal cortex region (from Bregma 2.0 to 1.3). Sequential slices were processed for floating-section double immunohistochemistry for the detection of parvalbumin and GAD67. Antigen retrieval was performed by incubation of the slices in 1% sodium borohydride for 15 min as described (see reference 34, below), followed by washing in PBS and incubation in 10% normal goat serum in PBS for 16 h at 4° C. Primary antibodies (Calbindin: 1:5000: Calretinin: 1:2000; Parvalbumin: 1:3000, all rabbit polyclonals from Swant, Bellinzona, Switzerland. GAD67: 1:1000, from Chemicon-Millipore, Temecula, Calif.) were diluted in 2% normal goat serum in PBS and applied to the slices for 18 h at 4° C., after which slices were washed in PBS and incubated in a 1:1000 dilution of ALEXAFLUOR™ (Molecular Probes, Invitrogen, Carlsbad, Calif.) conjugated goat anti-rabbit (568) or goat anti-mouse (488) antibodies for 1 hr at room temperature (rt). Slices were washed in PBS and mounted sequentially in glass slides using […]™ (Vector Laboratories, Burlingame, Calif.), covered with a coverslip and allowed to dry for at least 24 h before confocal imaging.
Six slices were analyzed per animal.
Analysis of superoxide and/or hydrogen peroxide production by confocal imaging of in vivo dihydroethidium (DHE) oxidation. Mice will be injected intraperitoneally (i.p.) with dihydroethidium.

Entries after “also recorded” stand apart in the source; their conditions may differ.

Consider “IL-6: pro-inflammatory cytokine interleukin-6”, for which, in data set [1], the “superoxide production (EPR, DEPMPO)” value is recorded as “small but significant increase”. Also, in data set [2], the “phosphorylation of Jak2” value is listed as “increased”. Moreover, the “Nox activity in synaptosomal preparations” value in [3] is recorded as “significant induction”. Further, the half-life in plasma in data set [4] is 4 h. Besides, the “plasma IL-6 16 hr after the last injection” value in [5] (3 μg/kg IL-6 i.p. on two consecutive days) was “increased plasma IL-6 in young, but not old, mice”. The “tolerability of higher doses” value in data set [5] (IL-6 12 μg/kg) is “induced the sickness response and generalized inflammatory reaction”. Moreover, in data set [6] (IL-6 10 ng/ml, 24 h), the “immunoreactivity of GAD67 and parvalbumin in PV-interneurons” value was “decreased”; the “levels of DHE oxidation” value was “increased”. Further, in [6] (IL-6 10 ng/ml, ketamine, 24 h), the “effect on parvalbumin and GAD67 immunoreactivity with sub-threshold ketamine” value is listed as “increased the effects of ketamine”. Besides, in [6] (IL-6, 24 hours), the “expression of Nox2” value was “pronounced increase”.

In the case of tris malonic acid C60 [C3], in data set [7], the “effect on ketamine-mediated increase in ROS / free radical production (DHE fluorescence)” value is on record as “prevented” and the “effect on ketamine-mediated increase in oxidized DHE” value is listed as “prevented”. Moreover, the “effect on age-related reduction of PV-interneuron numbers” value in data set [8] is “prevented the reduction of PV-interneuron numbers in CA1 and CA3, but not in DG”. Also, the “effect on ketamine-mediated loss of parvalbumin and GAD67 immunoreactivity in PV-interneurons” value in data set [9] was “prevented; also recorded: attenuated”. In data set [10], the “effect on elevated levels of superoxide in the pyramidal layer of CA1 in the aged hippocampus” value was “prevented”. Besides, in data set [11], the “effect on ketamine-induced increase in oxidized DHE in vivo” value is on record as “prevented” and the “effect on ketamine-mediated loss of parvalbumin immunoreactivity in PV-interneurons in vivo” value is recorded as “completely prevented”.

Values taken from US9944583B2, “Methods for ameliorating and preventing central nervous system inflammation” (THE REGENTS OF THE UNIVERSITY OF CALIFORNIA, priority 2007, dated 2018).
